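The compound was tested at five concentrations on cells cultured in 96-well plates, with a 48-hour exposure period. GI50 is the concentration that inhibits growth by half. TGI: concentration producing complete growth inhibition.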
Columns and labels:
Assay in all cases: NCI-60 cell line screen, 48 h
[1] = system: MOLT-4 leukemia
[2] = system: NCI-H460 lung
[3] = system: MDA-MB-231 breast
[4] = system: U251 CNS
[5] = system: CAKI-1 renal
[6] = system: UO-31 renal
[7] = system: OVCAR-5 ovarian
[8] = system: UACC-62 melanoma
[9] = system: MCF7 breast
[10] = system: HOP-92 NSCLC
[11] = system: SK-MEL-28 melanoma
[12] = system: MDA-MB-435
[13] = system: RPMI-8226 leukemia
[14] = system: HCT-116 colon
[15] = system: HOP-62 NSCLC
[16] = system: K-562 leukemia
[17] = system: KM12 colon
[18] = system: HCC-2998 colon
[19] = system: SNB-75 CNS
[20] = system: DU-145 prostate
[21] = system: OVCAR-8 ovarian
[22] = system: HT29 colon
[23] = system: SR leukemia
[24] = system: M14 melanoma
[25] = system: NCI/ADR-RES ovarian
[26] = system: HS 578T breast
[27] = system: SNB-19 CNS
[28] = system: SW-620 colon
[29] = system: OVCAR-4 ovarian
[30] = system: RXF 393 renal
[31] = system: TK-10 renal
[32] = system: A549 NSCLC
[33] = system: T-47D breast
[34] = system: PC-3 prostate
[35] = system: SN12C renal
[36] = system: COLO 205 colon
[37] = system: 786-0 renal
[38] = system: SK-MEL-2 melanoma
[39] = system: SF-268 CNS
[40] = system: SF-295 CNS
[41] = system: OVCAR-3 ovarian
[42] = system: HCT-15 colon
[43] = system: MALME-3M melanoma
[44] = system: HL-60(TB) leukemia
[45] = system: A498 renal
[46] = system: SK-MEL-5 melanoma
[47] = system: NCI-H226 lung
[48] = system: ACHN renal
[49] = system: IGROV1 ovarian
[50] = system: SF-539 CNS
[51] = system: EKVX NSCLC
[52] = system: UACC-257 melanoma
[53] = system: BT-549 breast
[54] = system: NCI-H23 lung
[55] = system: SK-OV-3 ovarian

O=C(Nc1cccc(Cl)c1)Nc1nc2ccc([N+](=O)[O-])cc2o1
GI50 [1]: 2.36 µM | TGI [1]: 7.71 µM | GI50 [2]: 1.74 µM | TGI [2]: 5.88 µM | GI50 [3]: 2.67 µM | TGI [3]: 8.54 µM | GI50 [4]: 2.71 µM | TGI [4]: > 100 µM | GI50 [5]: 2.17 µM | TGI [5]: 7.56 µM | GI50 [6]: 2.67 µM | TGI [6]: 7.82 µM | GI50 [7]: 4.32 µM | TGI [7]: > 100 µM | GI50 [8]: 1.54 µM | TGI [8]: 4.81 µM | GI50 [9]: 2.82 µM | TGI [9]: > 100 µM | GI50 [10]: 1.65 µM | TGI [10]: 6.04 µM | GI50 [11]: 3.22 µM | TGI [11]: > 100 µM | GI50 [12]: 2.88 µM | TGI [12]: > 100 µM | GI50 [13]: 1.48 µM | TGI [13]: 5.02 µM | GI50 [14]: 2.59 µM | TGI [14]: 10.3 µM | GI50 [15]: 2.49 µM | TGI [15]: 9.14 µM | GI50 [16]: 3.02 µM | TGI [16]: > 100 µM | GI50 [17]: 3.17 µM | TGI [17]: > 100 µM | GI50 [18]: 3.19 µM | TGI [18]: 48.3 µM | GI50 [19]: 2.68 µM | TGI [19]: 9.8 µM | GI50 [20]: 3.53 µM | TGI [20]: > 100 µM | GI50 [21]: 3.12 µM | TGI [21]: > 100 µM | GI50 [22]: 3.08 µM | TGI [22]: > 100 µM | GI50 [23]: 2.69 µM | TGI [23]: 7.84 µM | GI50 [24]: 2.54 µM | TGI [24]: 22.8 µM | GI50 [25]: 2.66 µM | TGI [25]: 8.84 µM | GI50 [26]: 3.3 µM | TGI [26]: 54.4 µM | GI50 [27]: 2.79 µM | TGI [27]: 86.5 µM | GI50 [28]: 2.71 µM | TGI [28]: > 100 µM | GI50 [29]: 2.56 µM | TGI [29]: > 100 µM | GI50 [30]: 1.66 µM | TGI [30]: 5.16 µM | GI50 [31]: 3.5 µM | TGI [31]: 8.43 µM | GI50 [32]: 3.06 µM | TGI [32]: > 100 µM | GI50 [33]: 1.47 µM | TGI [33]: 7.59 µM | GI50 [34]: 2.18 µM | TGI [34]: 9.12 µM | GI50 [35]: 2.28 µM | TGI [35]: 7.43 µM | GI50 [36]: 2.4 µM | TGI [36]: 7.82 µM | GI50 [37]: 2.49 µM | TGI [37]: 7.77 µM | GI50 [38]: 2.09 µM | TGI [38]: 6.11 µM | GI50 [39]: 3.04 µM | TGI [39]: > 100 µM | GI50 [40]: 1.99 µM | TGI [40]: 6.02 µM | GI50 [41]: 2.51 µM | TGI [41]: 11.4 µM | GI50 [42]: 2.46 µM | TGI [42]: > 100 µM | GI50 [43]: 2.49 µM | TGI [43]: 36 µM | GI50 [44]: 2.09 µM | TGI [44]: 4.99 µM | GI50 [45]: 1.56 µM | TGI [45]: 4.5 µM | GI50 [46]: 1.51 µM | TGI [46]: 4.19 µM | GI50 [47]: 2.13 µM | TGI [47]: 5.42 µM | GI50 [48]: 3.23 µM | TGI [48]: 12.7 µM | GI50 [49]: 2.83 µM | TGI [49]: > 100 µM | GI50 [50]: 2.75 µM | TGI [50]: 7.32 µM | GI50 [51]: 2.82 µM | TGI [51]: > 100 µM | GI50 [52]: 2.25 µM | TGI [52]: 18.3 µM | GI50 [53]: 2.09 µM | TGI [53]: 7.79 µM | GI50 [54]: 1.9 µM | TGI [54]: 7.09 µM | GI50 [55]: 2.7 µM | TGI [55]: 8.33 µM
